# Measurements: patent publication US12152011B2, “Usnic acid derivative having TSLP secretion inhibitory ability and use thereof” (SEOUL NATIONAL UNIVERSITY HOSPITAL, priority 2018, dated 2024)
# What was measured:
# IL-31 gene = assay: qRT-PCR of IL-31 gene expression in TNF-a stimulated HaCaT cells; type: cell-based, human; conditions: TNF-a stimulation, UA-CA treatment, FIG. 6
# IL-13 gene = assay: qRT-PCR of IL-13 gene expression in TNF-a stimulated HaCaT cells; type: cell-based, human; conditions: TNF-a stimulation, UA-CA treatment, FIG. 4
# hypertrophic scar = assay: Scar alleviation in rabbit ear hypertrophic scar model (biopsy, H&E histology); type: in vivo
# Experimental: In order to confirm the efficacy of Usnic acid derivatives in relieving hypertrophic scars, the degree of scar relief by UA-CA treatment in hypertrophic scar samples was confirmed through histological comparison and pathological examination of skin tissue after biopsy.
# A total of 4 rabbits weighing 3.5 kg (N2W conventional, female, 30 weeks old) were reared for a week in an environment of 21±1° C. 12-hour light/dark cycle, and the experiment was carried out. After anesthesia by intravenous administration of ketamine (60 mg/kg)+xylazine (5 mg/kg), both ears of the rabbit were sufficiently sterilized with betadine, and 5 wounds each with a diameter of 6 mm were made with a biopsy punch and a neck collar was applied. Management and supervision were made to become a hypertrophic scar model for 2 weeks after wound surgery. After confirming the hypertrophic scar model, the test material was treated twice a week for 2 weeks (untreated hypertrophic scar sample (Control), hypertrophic scar sample treated with 1, 5, and 10 mM UA-CA, 100 Thickening scar samples treated with ug/ml tranilast). After 2 weeks, visual evaluation and biopsy of the wound area were performed, followed by H&E staining, and then the changes in epidermal thickness were compared at 200 times and 400 times under a microscope.
# TSLP gene = assay: qRT-PCR of TSLP gene expression in TNF-a stimulated HaCaT cells; type: cell-based, human; conditions: TNF-a stimulation, UA-CA treatment, FIG. 2
# IL-25 gene = assay: qRT-PCR of IL-25 gene expression in TNF-a stimulated HaCaT cells; type: cell-based, human; conditions: TNF-a stimulation, UA-CA treatment, FIG. 5
# IL-1β gene = assay: qRT-PCR of IL-1β gene expression in TNF-a stimulated HaCaT cells; type: cell-based, human; conditions: TNF-a stimulation, UA-CA treatment, FIG. 3
structure (smiles),measurement,setting,value
C=C(OC(=O)/C=C/c1ccccc1)C1=C(OC(=O)/C=C/c2ccccc2)C=C2Oc3c(C(C)=O)c(O)c(C)c(O)c3[C@@]2(C)C1=O [UA-CA],"expression level of the IL-31 gene (mRNA, relative to 36B4)",IL-31 gene,dependently decreased
same,"expression level of the IL-13 gene (mRNA, relative to 36B4)",IL-13 gene,dependently decreased
same,scar relief compared with positive control tranilast,"hypertrophic scar; 10 mM UA-CA vs 100 ug/ml tranilast, twice a week for 2 weeks",better scar relief efficacy
same,scar relief compared to the untreated hypertrophic scar,"hypertrophic scar; UA-CA 1, 5, 10 mM, twice a week for 2 weeks, FIGS. 7A-7E",scar relief was more advanced
same,thickness of the epidermis compared to the untreated thickening scar,"hypertrophic scar; UA-CA-treated sample, H&E staining, FIGS. 8A-8E",became thinner
same,"expression level of the TSLP gene (mRNA, relative to 36B4)",TSLP gene,dependently decreased
same,"expression level of the IL-25 gene (mRNA, relative to 36B4)",IL-25 gene,dependently decreased
same,"expression level of the IL-1β gene (mRNA, relative to 36B4)",IL-1β gene,dependently decreased
